These results are taken from US8933039B2 (NPS Pharmaceuticals, Inc., priority 1995, dated 2015).

Non-standard residues stand in square brackets, D forms with d. Tle = CC(C)(C)[C@H](N)C(=O)O; βAla = NCCC(=O)O

In the data set the test system is dipeptidyl peptidase IV (DPP-IV). Kind of data set: human placental DPP-IV (Calbiochem), 0.125 mU, added to test peptide in PBS at pH 7.4. The following applies: 37° C., up to 24 hours.

The substance “[bAla2]hGLP-2(1-33) (H-H[βAla]DGSFSDEMNTILDNLAARDFINWLIQTKITD-OH; SMILES CC[C@H](C)[C@H](NC(=O)[C@H](Cc1ccccc1)NC(=O)[C@H](CC(=O)O)NC(=O)[C@H](CCCNC(=N)N)NC(=O)[C@H](C)NC(=O)[C@H](C)NC(=O)[C@H](CC(C)C)NC(=O)[C@H](CC(N)=O)NC(=O)[C@H](CC(=O)O)NC(=O)[C@H](CC(C)C)NC(=O)[C@@H](NC(=O)[C@@H](NC(=O)[C@H](CC(N)=O)NC(=O)[C@H](CCSC)NC(=O)[C@H](CCC(=O)O)NC(=O)[C@H](CC(=O)O)NC(=O)[C@H](CO)NC(=O)[C@H](Cc1ccccc1)NC(=O)[C@H](CO)NC(=O)CNC(=O)[C@H](CC(=O)O)NC(=O)CCNC(=O)[C@@H](N)Cc1c[nH]cn1)[C@@H](C)O)[C@@H](C)CC)C(=O)N[C@@H](CC(N)=O)C(=O)N[C@@H](Cc1c[nH]c2ccccc12)C(=O)N[C@@H](CC(C)C)C(=O)N[C@H](C(=O)N[C@@H](CCC(N)=O)C(=O)N[C@H](C(=O)N[C@@H](CCCCN)C(=O)N[C@H](C(=O)N[C@H](C(=O)N[C@@H](CC(=O)O)C(=O)O)[C@@H](C)O)[C@@H](C)CC)[C@@H](C)O)[C@@H](C)CC)” yielded a not cleaved of 0% cleaved by DPP-IV.

As for “[tBuGly2]hGLP-2 (H-H[Tle]DGSFSDEMNTILDNLAARDFINWLIQTKITD-OH; SMILES CC[C@H](C)[C@H](NC(=O)[C@H](Cc1ccccc1)NC(=O)[C@H](CC(=O)O)NC(=O)[C@H](CCCNC(=N)N)NC(=O)[C@H](C)NC(=O)[C@H](C)NC(=O)[C@H](CC(C)C)NC(=O)[C@H](CC(N)=O)NC(=O)[C@H](CC(=O)O)NC(=O)[C@H](CC(C)C)NC(=O)[C@@H](NC(=O)[C@@H](NC(=O)[C@H](CC(N)=O)NC(=O)[C@H](CCSC)NC(=O)[C@H](CCC(=O)O)NC(=O)[C@H](CC(=O)O)NC(=O)[C@H](CO)NC(=O)[C@H](Cc1ccccc1)NC(=O)[C@H](CO)NC(=O)CNC(=O)[C@H](CC(=O)O)NC(=O)[C@@H](NC(=O)[C@@H](N)Cc1c[nH]cn1)C(C)(C)C)[C@@H](C)O)[C@@H](C)CC)C(=O)N[C@@H](CC(N)=O)C(=O)N[C@@H](Cc1c[nH]c2ccccc12)C(=O)N[C@@H](CC(C)C)C(=O)N[C@H](C(=O)N[C@@H](CCC(N)=O)C(=O)N[C@H](C(=O)N[C@@H](CCCCN)C(=O)N[C@H](C(=O)N[C@H](C(=O)N[C@@H](CC(=O)O)C(=O)O)[C@@H](C)O)[C@@H](C)CC)[C@@H](C)O)[C@@H](C)CC)”, the not cleaved was 0% cleaved by DPP-IV.
